Experiments:
Assay in all cases: combination Emax (second highest fraction inhibited in the dose matrix, 72 h); higher = more inhibition; extreme values may be limits of the assay
[1] = system: NCI-H526 (Small Cell Lung Carcinoma)
Procedure, shortened: (§1)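 Cell lines in DMEM/F12 or RPMI with 10% FBS were plated in 1536-well plates, held 24 hours at 37°C, 5% CO2, then given two-drug dose matrices for 72 hours (DMSO typically 0.2%). Viability was read by CellTiter-Glo 2.0 luminescence and scaled as inhibition from 0 (vehicle wells) to 1 (blank wells). Combination Emax is the second-highest inhibition in the matrix; Bliss excess is observed combination effect minus expected EA + EB − EA·EB, EA and EB being single-agent effects.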

[2] = system: CHSA8926 (Chondrosarcoma)
Procedure, shortened: as §1

[3] = system: COR-L279 (Small Cell Lung Carcinoma)
Procedure, shortened: as §1

[4] = system: IM-95 (Gastric Carcinoma)
Procedure, shortened: as §1

[5] = system: G-361 (Melanoma)
Procedure, shortened: as §1

[6] = system: DMS-114 (Small Cell Lung Carcinoma)
Procedure, shortened: as §1

[7] = system: 8505C (Thyroid Gland Carcinoma)
Procedure, shortened: as §1

[8] = system: NCI-H929 (Plasma Cell Myeloma)
Procedure, shortened: as §1

[9] = system: NCI-H2731 (Mesothelioma)
Procedure, shortened: as §1

[10] = system: ST486 (Burkitt's Lymphoma)
Procedure, shortened: as §1

[11] = system: HCC1187 (Breast Carcinoma)
Procedure, shortened: as §1

[12] = system: NCI-H520 (Squamous Cell Lung Carcinoma)
Procedure, shortened: as §1

[13] = system: SJSA-1 (Osteosarcoma)
Procedure, shortened: as §1

[14] = system: VMRC-RCZ (Kidney Carcinoma)
Procedure, shortened: as §1

[15] = system: MN-60 (B-Lymphoblastic Leukemia)
Procedure, shortened: as §1

[16] = system: SK-GT-2 (Gastric Carcinoma)
Procedure, shortened: as §1

[17] = system: MOLM-13 (Acute Myeloid Leukemia)
Procedure, shortened: as §1

[18] = system: T-T (Esophageal Squamous Cell Carcinoma)
Procedure, shortened: as §1

[19] = system: M059J (Glioblastoma)
Procedure, shortened: as §1

[20] = system: PC-3 (Prostate Carcinoma)
Procedure, shortened: as §1

| SMILES | combination Emax [1] | combination Emax [2] | combination Emax [3] | combination Emax [4] | combination Emax [5] | combination Emax [6] | combination Emax [7] | combination Emax [8] | combination Emax [9] | combination Emax [10] | combination Emax [11] | combination Emax [12] | combination Emax [13] | combination Emax [14] | combination Emax [15] | combination Emax [16] | combination Emax [17] | combination Emax [18] | combination Emax [19] | combination Emax [20] |
| --- | --- | --- | --- | --- | --- | --- | --- | --- | --- | --- | --- | --- | --- | --- | --- | --- | --- | --- | --- | --- |
| Cc1c2c(nn1C)CSCc1cc(n(C)n1)CSc1cc(c3ccccc3c1)OCCCc1c(C(=O)O)n(C)c3c-2c(Cl)ccc13 [AZD5991] + CC1(C)CCC(CN2CCN(c3ccc(C(=O)NS(=O)(=O)c4ccc(NCC5CCOCC5)c([N+](=O)[O-])c4)c(Oc4cnc5[nH]ccc5c4)c3)CC2)=C(c2ccc(Cl)cc2)C1 [Venetoclax] (first compound max 1 µM, 7x7, partner max 1 µM) | 1 | 0.506 | 0.244 | 0.837 | 0.968 | 0.911 | 0.135 | 1 | 0.0671 | 0.974 | 0.997 | 0.201 | 0.296 | 0.21 | 0.323 | 0.198 | 1 | 0.908 | 0.347 | 0.171 |
| CC1(C)CCC(CN2CCN(c3ccc(C(=O)NS(=O)(=O)c4ccc(NCC5CCOCC5)c([N+](=O)[O-])c4)c(Oc4cnc5[nH]ccc5c4)c3)CC2)=C(c2ccc(Cl)cc2)C1 [Venetoclax] + CCN(CCO)CCCOc1ccc2c(Nc3cc(CC(=O)Nc4cccc(F)c4)[nH]n3)ncnc2c1 [AZD2811] (first compound max 1 µM, 7x7, partner max 1 µM) | 0.928 | 0.34 | 0.833 | 0.412 | 0.285 | 0.207 | 0.211 | 0.391 | 0.211 | 0.925 | 0.886 | 0.258 | 0.222 | 0.178 | 0.297 | 0.155 | 1 | 0.181 | 0.375 | 0.245 |
| CN(CCO)CC[C@H](CSc1ccccc1)Nc1ccc(S(=O)(=O)NC(=O)c2ccc(N3CCC([C@@H](O)c4ccccc4-c4ccc(Cl)cc4)CC3)cc2)cc1S(=O)(=O)C(F)(F)F [AZD4320] + C1CN(CCC1(C(=O)N[C@@H](CCO)C2=CC=C(C=C2)Cl)N)C3=NC=NC4=C3C=CN4 [Capivasertib] (first compound max 1 µM, 7x7, partner max 3 µM) | 0.929 | 0.579 | 0.983 | 0.658 | 0.234 | 0.229 | 0.135 | 0.969 | 0.197 | 0.881 | 0.146 | 0.593 | 0.392 | 0.37 | 0.137 | 0.403 | 1 | 0.199 | 0.486 | 0.231 |
| Cc1c2c(nn1C)CSCc1cc(n(C)n1)CSc1cc(c3ccccc3c1)OCCCc1c(C(=O)O)n(C)c3c-2c(Cl)ccc13 [AZD5991] + Cc1cc2ncnn2cc1Nc1ncc2c(n1)n(C1CCOCC1)c(=O)n2C [AZD7648] (first compound max 1 µM, 7x7, partner max 10 µM) | 0.323 | 0.515 | 0.468 | 0.788 | 0.956 | 0.692 | 0.193 | 1 | 0.576 | 0.841 | 1 | 0.567 | 0.361 | 0.191 | 0.15 | 0.192 | 1 | 0.926 | 0.468 | 0.305 |
| CC1(C)CCC(CN2CCN(c3ccc(C(=O)NS(=O)(=O)c4ccc(NCC5CCOCC5)c([N+](=O)[O-])c4)c(Oc4cnc5[nH]ccc5c4)c3)CC2)=C(c2ccc(Cl)cc2)C1 [Venetoclax] + C=CCn1c(=O)c2cnc(Nc3ccc(N4CCN(C)CC4)cc3)nc2n1-c1cccc(C(C)(C)O)n1 [AZD1775] (first compound max 1 µM, partner max 1 µM) | 0.835 | 0.57 | 0.746 | 0.299 | 0.589 | 0.437 | 0.244 | 0.659 | 0.286 | 0.978 | 0.442 | 0.647 | 0.453 | 0.467 | 0.305 | 0.597 | 1 | 0.711 | 0.713 | 0.29 |
| COc1cccc(OCCCN)c1-c1cc(Nc2cnc(C#N)cn2)n[nH]1 [Prexasertib] + Cc1cc2ncnn2cc1Nc1ncc2c(n1)n(C1CCOCC1)c(=O)n2C [AZD7648] (first compound max 1 µM, 7x7, partner max 10 µM) | 0.92 | 0.416 | 0.803 | 0.36 | 0.696 | 0.477 | 0.483 | 0.847 | 0.385 | 0.996 | 0.614 | 0.881 | 0.656 | 0.362 | 0.555 | 0.833 | 1 | 0.65 | 0.693 | 0.358 |
| CCN(CCO)CCCOc1ccc2c(Nc3cc(CC(=O)Nc4cccc(F)c4)[nH]n3)ncnc2c1 [AZD2811] + C[C@@H]1COCCN1C2=NC(=NC(=C2)C3(CC3)[S@](=N)(=O)C)C4=C5C=CNC5=NC=C4 [AZD6738] (first compound max 1 µM, 7x7, partner max 10 µM) | 0.634 | 0.332 | 0.832 | 0.312 | 0.441 | 0.435 | 0.278 | 0.641 | 0.308 | 0.913 | 0.846 | 0.663 | 0.289 | 0.279 | 0.477 | 0.289 | 1 | 0.42 | 0.646 | 0.431 |
| COc1nnc2ccc(N3CCC(c4ccc(OCCN5CCN(C)C(=O)[C@H]5C)cc4)CC3)nn12 [AZD5153] + Cc1c2c(nn1C)CSCc1cc(n(C)n1)CSc1cc(c3ccccc3c1)OCCCc1c(C(=O)O)n(C)c3c-2c(Cl)ccc13 [AZD5991] (first compound max 1 µM, 7x7, partner max 1 µM) | 1 | 0.651 | 0.982 | 0.798 | 0.997 | 1 | 0.475 | 1 | 0.528 | 0.978 | 1 | 0.744 | 0.553 | 0.323 | 0.719 | 0.319 | 1 | 0.958 | 0.864 | 0.376 |
| CCc1c2c(nc3ccc(O)cc13)-c1cc3c(c(=O)n1C2)COC(=O)[C@]3(O)CC [SN-38] + CN(C)CCCOc1ccc(-c2ccc3ncc4c(c3c2)n(C2CCOCC2)c(=O)n4C)cn1 [AZD0156] (first compound max 0.3 µM, 7x7, partner max 1 µM) | 1 | 0.319 | 1 | 0.499 | 0.324 | 0.514 | 0.87 | 0.869 | 0.406 | 0.733 | 0.336 | 0.786 | 0.673 | 0.261 | 0.838 | 0.444 | 1 | 0.803 | 0.978 | 0.688 |
| CCN(CCO)CCCOc1ccc2c(Nc3cc(CC(=O)Nc4cccc(F)c4)[nH]n3)ncnc2c1 [AZD2811] + O=C(c1cc(Cc2n[nH]c(=O)c3ccccc23)ccc1F)N1CCN(C(=O)C2CC2)CC1 [Olaparib] (first compound max 1 µM, 7x7, partner max 10 µM) | 0.642 | 0.3 | 0.945 | 0.362 | 0.34 | 0.177 | 0.212 | 0.292 | 0.226 | 0.856 | 0.824 | 0.345 | 0.17 | 0.195 | 0.301 | 0.203 | 1 | 0.212 | 0.413 | 0.179 |
| CN(C)CCCOc1ccc(-c2ccc3ncc4c(c3c2)n(C2CCOCC2)c(=O)n4C)cn1 [AZD0156] + C[C@@H]1COCCN1C2=NC(=NC(=C2)C3(CC3)[S@](=N)(=O)C)C4=C5C=CNC5=NC=C4 [AZD6738] (first compound max 1 µM, 7x7, partner max 10 µM) | 0.529 | 0.336 | 0.694 | 0.339 | 0.628 | 0.515 | 0.24 | 0.778 | 0.244 | 0.948 | 0.472 | 0.682 | 0.325 | 0.232 | 0.402 | 0.311 | 0.997 | 0.659 | 0.637 | 0.484 |
| COc1nnc2ccc(N3CCC(c4ccc(OCCN5CCN(C)C(=O)[C@H]5C)cc4)CC3)nn12 [AZD5153] + C[C@@H]1COCCN1C2=NC(=NC(=C2)C3(CC3)[S@](=N)(=O)C)C4=C5C=CNC5=NC=C4 [AZD6738] (first compound max 1 µM, 7x7, partner max 10 µM) | 0.947 | 0.632 | 0.972 | 0.44 | 0.872 | 0.733 | 0.807 | 0.991 | 0.699 | 0.973 | 0.696 | 0.869 | 0.634 | 0.58 | 0.8 | 0.535 | 1 | 0.587 | 0.74 | 0.5 |
